Experimental data reported in patent US20190375708A1 (VenatoRx Pharmaceuticals, Inc., priority 2018, published 2019).

Columns and labels:
[1] = tested on: HBV replication in HepAD38 cells; assay: Anti-HBV replication assay in HepAD38 cells (QPCR of extracellular HBV DNA); format: cell-based, HBV (genotype D, serotype ayw); conditions: Hepatitis B virus, 168 h, 7 days incubation, extracellular HBV DNA by QPCR, read-out: Anti-HBV EC50
How it was run: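 EC50 values reflect 50% reduction of extracellular HBV DNA, measured by QPCR after 7-day treatment of tetracycline-deprived HepAD38 cells with compound […].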

[2] = In vitro cytotoxicity assay (MTT cell viability) in HepG2 cells; format: cell-based, human; conditions: human
How it was run: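 HepG2 seeded overnight, then 7-day compound exposure (30 μM–1.0 nM, half-log steps), 37 °C. MTT 3-4 h, DMSO solubilization, A492. % of vehicle → CC50, 4-PL fit.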

## Cc1c(C(=O)Nc2cccc(Cl)c2)c(C)n(C)c1C(=O)C(=O)NC(C)(C)CN1CCOCC1 [Example 601, N-(3-chlorophenyl)-1,2,4-trimethyl-5-(2-((2-methyl-1-morpholinopropan-2-yl)amino)-2-oxoacetyl)-1H-pyrrole-3-carboxamide]
[1]
  EC50: < 50 nM
[2]
  CC50 at 7 days: > 30000 nM

## Cc1cc(NC(=O)c2c(C)c(C(=O)C(=O)NC(C)(C)CN3CCN(C)CC3)n(C)c2C)ccc1F [Example 651, N-(4-fluoro-3-methylphenyl)-1,2,4-trimethyl-5-(2-((2-methyl-1-(4-methylpiperazin-1-yl)propan-2-yl)amino)-2-oxoacetyl)-1H-pyrrole-3-carboxamide]
[1]
  EC50: < 50 nM
[2]
  CC50 at 7 days: > 30000 nM

## Cc1cc(NC(=O)c2c(C)c(C(=O)C(=O)NC34CC5CC(CC(O)(C5)C3)C4)n(CCO)c2C)ccc1F [Example 73, N-(4-fluoro-3-methylphenyl)-5-(2-(((1r,3s,5R,7S)-3-hydroxyadamantan-1-yl)amino)-2-oxoacetyl)-1-(2-hydroxyethyl)-2,4-dimethyl-1H-pyrrole-3-carboxamide]
[1]
  EC50: > 1000 nM
[2]
  CC50 at 7 days: > 30000 nM

## Cc1cc(NC(=O)c2c(C)c(C(=O)C(=O)NC(C)(C)CO)n(CCF)c2C)ccc1F [Example 116, N-(4-fluoro-3-methylphenyl)-1-(2-fluoroethyl)-5-(2-((1-hydroxy-2-methylpropan-2-yl)amino)-2-oxoacetyl)-2,4-dimethyl-1H-pyrrole-3-carboxamide]
[1]
  EC50: < 50 nM
[2]
  CC50 at 7 days: > 30000 nM

## Cc1cc(NC(=O)c2c(C)c(C(=O)C(=O)N[C@H](C)C(C)(C)C)n(C)c2C)ccc1F [Example 63, (R)-5-(2-((3,3-dimethylbutan-2-yl)amino)-2-oxoacetyl)-N-(4-fluoro-3-methylphenyl)-1,2,4-trimethyl-1H-pyrrole-3-carboxamide]
[1]
  EC50: < 50 nM
[2]
  CC50 at 7 days: > 30000 nM

## Cc1cc(NC(=O)c2c(C)c(C(=O)C(=O)NC3(C(=O)N[C@H](C)C(F)(F)F)CCOCC3)n(C)c2C)ccc1F [Example 605, (R)-N-(4-fluoro-3-methylphenyl)-1,2,4-trimethyl-5-(2-oxo-2-((4-((1,1,1-trifluoropropan-2-yl)carbamoyl)tetrahydro-2H-pyran-4-yl)amino)acetyl)-1H-pyrrole-3-carboxamide]
[1]
  EC50: < 50 nM
[2]
  CC50 at 7 days: > 30000 nM

## Cc1cc(NC(=O)c2c(C)c(C(=O)C(=O)NC3(C)CCN(C(=O)c4cn(C)nc4C(F)F)CC3)n(C)c2C)ccc1F [Example 708, 5-(2-((1-(3-(difluoromethyl)-1-methyl-1H-pyrazole-4-carbonyl)-4-methylpiperidin-4-yl)amino)-2-oxoacetyl)-N-(4-fluoro-3-methylphenyl)-1,2,4-trimethyl-1H-pyrrole-3-carboxamide]
[1]
  EC50: < 50 nM
[2]
  CC50 at 7 days: > 30000 nM

## Cc1nnc(C2(NC(=O)C(=O)c3c(C)c(C(=O)Nc4ccc(F)c(C)c4)c(C)n3C)CC2)o1 [Example 182, N-(4-fluoro-3-methylphenyl)-1,2,4-trimethyl-5-(2-((1-(5-methyl-1,3,4-oxadiazol-2-yl)cyclopropyl)amino)-2-oxoacetyl)-1H-pyrrole-3-carboxamide]
[1]
  EC50: < 50 nM
[2]
  CC50 at 7 days: > 30000 nM

## CC[C@@H](CO)NC(=O)C(=O)c1c(C)c(C(=O)Nc2ccc(F)c(C)c2)c(C)n1CCF [Example 180, (S)-N-(4-fluoro-3-methylphenyl)-1(2-fluoroethyl)-5-(2-((1-hydroxybutan-2-yl)amino)-2-oxoacetyl)-2,4-dimethyl-1H-pyrrole-3-carboxamide]
[1]
  EC50: < 50 nM
[2]
  CC50 at 7 days: 5000 to 30000 nM

## Cc1cc(NC(=O)c2c(C)c(C(=O)C(=O)N[C@@H](CO)C(N)=O)n(C)c2C)ccc1F [Example 41, (S)-5-(2-((1-amino-3-hydroxy-1-oxopropan-2-yl)amino)-2-oxoacetyl)-N-(4-fluoro-3-methylphenyl)-1,2,4-trimethyl-1H-pyrrole-3-carboxamide]
[1]
  EC50: < 50 nM
[2]
  CC50 at 7 days: 500 to 4990 nM

## Cc1cc(NC(=O)c2c(C)c(C(=O)C(=O)Nc3ccc(F)cn3)n(C)c2C)cnc1F [Example 338, N-(6-fluoro-5-methylpyridin-3-yl)-5-(2-((5-fluoropyridin-2-yl)amino)-2-oxoacetyl)-1,2,4-trimethyl-1H-pyrrole-3-carboxamide]
[1]
  EC50: 500 to 1000 nM
[2]
  CC50 at 7 days: > 30000 nM

## Cc1cc(NC(=O)c2c(C)c(C(=O)C(=O)NC(C)c3nn[nH]n3)n(C)c2C)ccc1F (centres unmarked) [Example 79, 5-(2-((1-(2H-tetrazol-5-yl)ethyl)amino)-2-oxoacetyl)-N-(4-fluoro-3-methylphenyl)-1,2,4-trimethyl-1H-pyrrole-3-carboxamide]
[1]
  EC50: 50 to 499 nM
[2]
  CC50 at 7 days: > 30000 nM

## Cc1cc(Cl)cc(NC(=O)c2c(C)c(C(=O)C(=O)N[C@]3(C)CC[C@@H](O)CC3)n(C)c2C)c1 [Example 687, N-(3-chloro-5-methylphenyl)-5-(2-(((1r,4r)-4-hydroxy-1-metthylcyclohexyl)amino)-2-oxoacetyl)-1,2,4-trimethyl-1H-pyrrole-3-carboxamide]
[1]
  EC50: < 50 nM
[2]
  CC50 at 7 days: 5000 to 30000 nM

## Cc1cc(NC(=O)c2c(C)c(C(=O)C(=O)Nc3cccnc3)n(C)c2C)cnc1F [Example 339, N-(6-fluoro-5-methylpyridin-3-yl)-1,2,4-trimethyl-5-(2-oxo-2-(pyridin-3-ylamino)acetyl)-1H-pyrrole-3-carboxamide]
[1]
  EC50: 500 to 1000 nM
[2]
  CC50 at 7 days: > 30000 nM

## Cc1cc(NC(=O)c2c(C)c(C(=O)C(=O)Nc3cccc(B(O)O)c3)n(C)c2C)ccc1F [Example 254, (3-(2-(4-((4-fluoro-3-methylphenyl)carbamoyl)-1,3,5-trimethyl-1H-pyrrol-2-yl)-2-oxoacetamido)phenyl)boronic acid]
[1]
  EC50: < 50 nM
[2]
  CC50 at 7 days: 5000 to 30000 nM

## Cc1cc(NC(=O)c2c(C)c(C(=O)C(=O)NC3(C(F)(F)F)CCOCC3)n(C)c2C)cc(Cl)n1 [Example 638, N-(2-chloro-6-methylpyridin-4-yl)-1,2,4-trimethyl-5-(2-oxo-2-((4-(trifluoromethyl)etetrahydro-2H-pyran-4-yl)amino)acetyl)-1H-pyrrole-3-carboxamide]
[1]
  EC50: < 50 nM
[2]
  CC50 at 7 days: > 30000 nM

## Cc1cc(NC(=O)c2c(Cl)c(C(=O)C(=O)NC(C)(C)CO)n3c2CCCC3)cnc1F [Example 508, 2-chloro-N-(6-fluoro-5-methylpyridin-3-yl)-3-(2-((1-hydroxy-2-methylpropan-2-yl)amino)-2-oxoacetyl)-5,6,7,8-tettrahydroindolizine-1-carboxamide]
[1]
  EC50: 500 to 1000 nM
[2]
  CC50 at 7 days: > 30000 nM

## Cc1cc(NC(=O)c2c(C)c(C(=O)C(=O)N[C@@H](C(=O)NCC(C)(C)O)C(C)(C)C)n(C)c2C)ccc1F [Example 87, (R)-N-(4-fluoro-3-methylphenyl)-5-(2-((1-((2-hydroxy-2-methylpropyl)amino)-3,3-dimethyl-1-oxobutan-2-yl)amino)-2-oxoacetyl)-1,2,4-trimethyl-1H-pyrrole-3-carboxamide]
[1]
  EC50: < 50 nM
[2]
  CC50 at 7 days: > 30000 nM

## Cc1c(C(=O)Nc2ccnc(F)c2)c(C)n(C)c1C(=O)C(=O)NC1(C(F)(F)F)CCOCC1 [Example 271, N-(2-fluoropyridin-4-yl)-1,2,4-trimethyl-5-(2-oxo-2-((4-(trifluoromethyl)tetrahydro-2H-pyran-4-yl)amino)acetyl)-1H-pyrrole-3-carboxamide]
[1]
  EC50: < 50 nM
[2]
  CC50 at 7 days: > 30000 nM

## Cc1c(C(=O)Nc2ccc(F)c(Cl)c2)c(C)n(C)c1C(=O)C(=O)N[C@H]1CC[C@@H](O)CC1 [Example 251, N-(3-chloro-4-fluorophenyl)-5-(2-(((1s,4s)-4-hydroxycyclohexyl)amino)-2-oxoacetyl)-1,2,4-trimethyl-1H-pyrrole-3-carboxamide]
[1]
  EC50: < 50 nM
[2]
  CC50 at 7 days: > 30000 nM

## Cc1cc(NC(=O)c2c(C)c(C(=O)C(=O)NC3(CO)CCCCC3)n(C)c2C)ccc1F [Example 599, N-(4-fluoro-3-methylphenyl)-5-(2-((1-(hydroxymethyl)cyclohexyl)amino)-2-oxoacetyl)-1,2,4-trimethyl-1H-pyrrole-3-carboxamide]
[1]
  EC50: < 50 nM
[2]
  CC50 at 7 days: > 30000 nM

## Cc1cc(NC(=O)c2cc(C(=O)C(=O)NC3(CO)CC3)n3c2CCCC3)ccc1F [Example 420, N-(4-fluoro-3-methylphenyl)-3-(2-((1-(hydroxymethyl)cyclopropyl)amino)-2-oxoacetyl)-5,6,7,8-tetrahydroindolizine-1-carboxamide]
[1]
  EC50: 50 to 499 nM
[2]
  CC50 at 7 days: > 30000 nM

## Cc1cc(NC(=O)c2c(Cl)c(C(=O)C(=O)NCC(C)(C)O)n3c2CCCC3)ccc1F [Example 497, 2-chloro-N-(4-fluoro-3-methylphenyl)-3-(2-((2-hydroxy-2-methylpropyl)amino)-2-oxoacetyl)-5,6,7,8-tetrahydroindoliine-1-carboxamide]
[1]
  EC50: 50 to 499 nM
[2]
  CC50 at 7 days: 500 to 4990 nM

## Cc1c(C(=O)Nc2ccc(F)cn2)c(C)n(C)c1C(=O)C(=O)NC12CC3CC(CC1C3)C2 [Example 135, N-(5-fluoropyridin-2-yl)-5-(2-(((2R,3as,5S,6as)-hexahydro-2,5-methanopentalen-3a(1H)-l)amino)-2-oxoacetyl)-1,2,4-trimethyl-1H-pyrrole-3-carboxamide]
[1]
  EC50: 50 to 499 nM
[2]
  CC50 at 7 days: 5000 to 30000 nM

## Cc1cc(NC(=O)c2c(Cl)c(C(=O)C(=O)NCC(C)(C)O)n3c2CCC3)ccc1F [Example 550, 6-chloro-N-(4-fluoro-3-methylphenyl)-5-(2-((2-hydroxy-2-methylpropyl)amino)-2-oxoacetyl)-2,3-dihydro-1H-pyrrolizine-7-carboamide]
[1]
  EC50: < 50 nM
[2]
  CC50 at 7 days: > 30000 nM
